The results in this text go back to patent publication US9938261B2, “Heterocyclic compounds and methods of use thereof” (AMBIT BIOSCIENCES CORPORATION, priority 2011, dated 2018).

Assay [1] concerns the target T1, FLT3 (Homo sapiens, UniProt P36888).
T1 construct: made in house
T1 sequence (P36888 27-993): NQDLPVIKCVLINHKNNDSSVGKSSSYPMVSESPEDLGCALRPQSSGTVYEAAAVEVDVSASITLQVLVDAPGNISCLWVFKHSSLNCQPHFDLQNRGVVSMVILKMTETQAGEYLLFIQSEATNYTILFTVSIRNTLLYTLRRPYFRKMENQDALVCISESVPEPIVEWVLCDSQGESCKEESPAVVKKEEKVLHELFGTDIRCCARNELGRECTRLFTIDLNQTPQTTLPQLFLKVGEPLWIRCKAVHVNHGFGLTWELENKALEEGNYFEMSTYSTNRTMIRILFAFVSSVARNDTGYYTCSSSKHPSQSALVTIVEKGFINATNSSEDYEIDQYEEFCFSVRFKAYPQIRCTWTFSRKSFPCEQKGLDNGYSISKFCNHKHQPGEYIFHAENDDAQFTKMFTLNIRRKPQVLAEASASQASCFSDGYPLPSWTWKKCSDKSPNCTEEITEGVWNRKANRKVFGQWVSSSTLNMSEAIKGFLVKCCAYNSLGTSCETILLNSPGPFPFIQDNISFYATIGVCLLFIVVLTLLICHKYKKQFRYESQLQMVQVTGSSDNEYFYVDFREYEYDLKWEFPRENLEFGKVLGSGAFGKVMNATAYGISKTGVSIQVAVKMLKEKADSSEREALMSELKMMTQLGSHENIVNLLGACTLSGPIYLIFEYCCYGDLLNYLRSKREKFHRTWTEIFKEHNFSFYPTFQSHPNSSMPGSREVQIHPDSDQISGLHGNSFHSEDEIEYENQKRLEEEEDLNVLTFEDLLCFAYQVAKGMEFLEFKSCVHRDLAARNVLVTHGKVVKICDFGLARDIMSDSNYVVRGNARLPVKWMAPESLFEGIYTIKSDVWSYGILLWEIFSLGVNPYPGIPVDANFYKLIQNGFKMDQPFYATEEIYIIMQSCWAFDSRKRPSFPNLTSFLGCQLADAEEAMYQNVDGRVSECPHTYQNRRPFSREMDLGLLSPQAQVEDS
The assay can be described thus: Competition binding assay, FLT3 Kd. Summed up:
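Kinases, either T7 phage fusions or HEK-293-expressed and DNA-tagged, competed with test compounds for immobilized biotinylated affinity ligand on streptavidin beads in binding buffer (20% SeaBlock, 0.17×PBS, 0.05% Tween 20, 6 mM DTT). After 1 hour at room temperature, bead-bound kinase was eluted and quantified by qPCR; Kd from eleven-point threefold dilutions.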

For assay [2], the target named is CSF1R (Homo sapiens, UniProt P07333). The assay can be described thus: HEK293 CSF1R phosphorylation MSD assay. It counts as cell-based. The arrangement: expressed in transfected cells; host or cells: HEK293. The note with it: 2 h compound, human M-CSF 50 ng/mL for 5 min; read-out: HEK293 pCSF1R M-CSF MSD:IC50. Summed up: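 HEK293 cells expressing CSF1R-FKBP were pretreated 2 h at 37° C with 9 half-log concentrations of compound (0.5% DMSO final), then stimulated 5 min with 50 ng/mL human M-CSF. Lysates captured on biotin-FK506 plates; phosphotyrosine detected by MSD electrochemiluminescence. IC50 versus DMSO, averaged from duplicate plates.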
CSF1R, sequence (P07333 20-972): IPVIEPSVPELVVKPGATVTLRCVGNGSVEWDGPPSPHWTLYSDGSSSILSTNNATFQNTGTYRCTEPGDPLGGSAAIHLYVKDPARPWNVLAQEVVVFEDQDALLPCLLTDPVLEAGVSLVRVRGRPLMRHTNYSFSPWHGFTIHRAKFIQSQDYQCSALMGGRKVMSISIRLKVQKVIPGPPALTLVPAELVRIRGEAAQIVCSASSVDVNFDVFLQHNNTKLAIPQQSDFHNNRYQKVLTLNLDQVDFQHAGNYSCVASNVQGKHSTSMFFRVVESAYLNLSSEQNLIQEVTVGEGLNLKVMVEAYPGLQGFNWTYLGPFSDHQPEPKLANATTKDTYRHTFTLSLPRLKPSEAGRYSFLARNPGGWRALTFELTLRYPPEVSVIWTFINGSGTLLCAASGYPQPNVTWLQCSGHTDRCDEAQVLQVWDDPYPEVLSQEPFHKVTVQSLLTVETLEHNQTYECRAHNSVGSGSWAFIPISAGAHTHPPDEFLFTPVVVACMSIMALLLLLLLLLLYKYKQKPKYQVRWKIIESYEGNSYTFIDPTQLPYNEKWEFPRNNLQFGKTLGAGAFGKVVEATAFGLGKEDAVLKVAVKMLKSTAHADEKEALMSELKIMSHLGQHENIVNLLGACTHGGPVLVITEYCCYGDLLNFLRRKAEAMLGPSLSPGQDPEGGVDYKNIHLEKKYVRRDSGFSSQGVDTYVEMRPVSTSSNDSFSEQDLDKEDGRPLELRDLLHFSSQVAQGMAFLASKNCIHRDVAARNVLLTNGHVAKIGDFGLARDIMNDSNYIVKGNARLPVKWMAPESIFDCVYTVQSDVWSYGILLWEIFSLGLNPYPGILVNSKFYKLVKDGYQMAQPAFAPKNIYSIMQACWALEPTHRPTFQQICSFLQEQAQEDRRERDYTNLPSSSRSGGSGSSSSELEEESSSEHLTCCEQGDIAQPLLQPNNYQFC

Consider `COc1cc2ncn(Cc3ccc4nc(N[C@@H]5CCCCC[C@H]5O)sc4c3)c2cc1OC` (racemic) [Example 50, (±)-2-((6-((5,6-dimethoxy-1H-benzo[d]imidazol-1-yl)methyl)benzo[d]thiazol-2-yl)amino)cycloheptanol], for which the Kd in assay [1] was ≤ 0.2 µM. For the same compound, the IC50 in assay [2] was ≤ 0.05 µM.
In the case of `CS(=O)(=O)O.O[C@@H]1CCCC[C@H]1Nc1nc2ccc(Cn3cnc4cccnc43)cc2s1` [Example 3, (1R,2R)-2-((6-((3H-imidazo[4,5-b]pyridin-3-yl)methyl)benzo[d]thiazol-2-yl)amino)cyclohexanol methanesulfonic acid], in assay [1], the Kd was 1 to 5 µM. Also, in assay [2], the IC50 fell in the range of 0.05 to 0.2 µM.
`COc1cc2ncn(Cc3ccc4nc(N[C@@H](C)C5CCCCC5)sc4c3)c2cc1OC` [Example 33, (S)—N-(1-cyclohexylethyl)-6-((5,6-dimethoxy-1H-benzo[d]imidazol-1-yl)methyl)benzo[d]thiazol-2-amine] showed a Kd in assay [1] of 0.2 to 1 µM. The IC50 in assay [2] lay in the range of 0.05 to 0.2 µM.
For `COc1cc2ncn(Cc3ccc4nc(N[C@@H]5CCCC[C@H]5O)oc4c3)c2cc1OC` [Example 34, (1R,2R)-2-((6-((5,6-dimethoxy-1H-benzo[d]imidazol-1-yl)methyl)benzo[d]oxazol-2-yl)amino)cyclohexanol], in assay [1], the Kd is ≤ 0.2 µM. Moreover, in assay [2], the IC50 lay in the range of 0.05 to 0.2 µM.
For `COc1cc2ncn(Cc3ccc4nc(NCC5CCCCC5)oc4c3)c2cc1OC` [Example 35, N-(cyclohexylmethyl)-6-((5,6-dimethoxy-1H-benzo[d]imidazol-1-yl)methyl)benzo[d]oxazol-2-amine], the Kd in assay [1] is ≤ 0.2 µM. Besides, the IC50 in assay [2] is ≤ 0.05 µM.
As to `Cn1cc(-c2cn(Cc3ccc4nc(N[C@@H]5CCCC[C@H]5O)sc4c3)cn2)cn1` [Example 36, (1R,2R)-2-((6-((4-(1-methyl-1H-pyrazol-4-yl)-1H-imidazol-1-yl)methyl)benzo[d]thiazol-2-yl)amino)cyclohexanol], the Kd in assay [1] is > 5 µM. Also, in assay [2], the IC50 lay within 0.05 to 0.2 µM.
Take `CNC(=O)c1cn(Cc2ccc3nc(N[C@@H]4CCCC[C@H]4O)sc3c2)cn1` [Example 37, 1-((2-(((1R,2R)-2-hydroxycyclohexyl)amino)benzo[d]thiazol-6-yl)methyl)-N-methyl-1H-imidazole-4-carboxamide]: in assay [1], the Kd was > 5 µM. For the same compound, in assay [2], the IC50 was > 0.5 µM.
As to `O[C@@H]1CCCC[C@H]1Nc1nc2ccc(Cc3cnc4ccccn34)cc2s1` [Example 38, (1R,2R)-2-((6-(imidazo[1,2-a]pyridin-3-ylmethyl)benzo[d]thiazol-2-yl)amino)cyclohexanol], the Kd in assay [1] was > 5 µM. Besides, in assay [2], the IC50 lay within 0.2 to 0.5 µM.
For `Cn1cc(-c2cnc3c(c2)ncn3Cc2ccc3nc(N[C@@H]4CCCC[C@H]4O)sc3c2)cn1` [Example 39, (1R,2R)-2-((6-((6-(1-methyl-1H-pyrazol-4-yl)-3H-imidazo[4,5-b]pyridin-3-yl)methyl)benzo[d]thiazol-2-yl)amino)cyclohexanol], the Kd in assay [1] was ≤ 0.2 µM. For the same compound, the IC50 in assay [2] was ≤ 0.05 µM.
On to `O[C@@H]1CCCC[C@H]1Nc1nc2ccc(Cn3cnc4cc(-c5cccnc5)cnc43)cc2s1` [Example 40, (1R,2R)-2-((6-((6-(pyridin-3-yl)-3H-imidazo[4,5-b]pyridin-3-yl)methyl)benzo[d]thiazol-2-yl)amino)cyclohexanol], for which the equilibrium dissociation constant (Kd) in assay [1] was ≤ 0.2 µM. Besides, the IC50 in assay [2] is ≤ 0.05 µM.
`COc1cc2c(cc1Br)ncn2Cc1ccc2nc(N[C@@H]3CCCC[C@H]3O)sc2c1` [Example 41, (1R,2R)-2-((6-((5-bromo-6-methoxy-1H-benzo[d]imidazol-1-yl)methyl)benzo[d]thiazol-2-yl)amino)cyclohexanol]: in assay [1], the Kd fell in the range of 0.2 to 1 µM. In addition, the IC50 in assay [2] is 0.05 to 0.2 µM.
In the case of `O[C@@H]1Cc2ccccc2[C@H]1Nc1nc2ccc(Cn3cnc4cc(Br)cnc43)cc2s1` [Example 42, (1R,2R)-1-((6-((6-bromo-3H-imidazo[4,5-b]pyridin-3-yl)methyl)benzo[d]thiazol-2-yl)amino)-2,3-dihydro-1H-inden-2-ol], the Kd in assay [1] is 1 to 5 µM. Besides, the IC50 in assay [2] lay within 0.05 to 0.2 µM.
`N#Cc1cnc2c(c1)ncn2Cc1ccc2nc(N[C@@H]3CCCC[C@H]3O)sc2c1` [Example 43, 3-((2-(((1R,2R)-2-hydroxycyclohexyl)amino)benzo[d]thiazol-6-yl)methyl)-3H-imidazo[4,5-b]pyridine-6-carbonitrile]: in assay [1], the Kd lay in the range of 1 to 5 µM. Besides, in assay [2], the IC50 fell in the range of 0.05 to 0.2 µM.
`COc1ccn2c(Cc3ccc4nc(N[C@@H]5CCCC[C@H]5O)sc4c3)cnc2c1` [Example 44, (1R,2R)-2-((6-((7-methoxyimidazo[1,2-a]pyridin-3-yl)methyl)benzo[d]thiazol-2-yl)amino)cyclohexanol]: the Kd in assay [1] was > 5 µM. In assay [2], the IC50 lay within 0.05 to 0.2 µM.
In the case of `O[C@@H]1CCCC[C@H]1Nc1nc2ccc(Cn3cnc4cc(C5CC5)cnc43)cc2s1` [Example 45, (1R,2R)-2-((6-((6-cyclopropyl-3H-imidazo[4,5-b]pyridin-3-yl)methyl)benzo[d]thiazol-2-yl)amino)cyclohexanol], in assay [1], the Kd is 0.2 to 1 µM. For the same compound, the IC50 in assay [2] was ≤ 0.05 µM.
In turn, `O[C@@H]1Cc2ccccc2[C@H]1Nc1nc2ccc(Cn3cnc4cccnc43)cc2s1` [Example 46, (1R,2R)-1-((6-((3H-imidazo[4,5-b]pyridin-3-yl)methyl)benzo[d]thiazol-2-yl)amino)-2,3-dihydro-1H-inden-2-ol] displayed a Kd in assay [1] of 1 to 5 µM. For the same compound, the IC50 in assay [2] lay in the range of 0.05 to 0.2 µM.
As for `COc1cc2ncn(Cc3ccc4nc(N[C@@H]5CCCC[C@H]5O)sc4c3)c2cc1Br` [Example 47, (1R,2R)-2-((6-((6-bromo-5-methoxy-1H-benzo[d]imidazol-1-yl)methyl)benzo[d]thiazol-2-yl)amino)cyclohexanol], the Kd in assay [1] lay within 0.2 to 1 µM. The half-inhibitory concentration (IC50) in assay [2] was in the range of 0.05 to 0.2 µM.
On the same counts, the results for `O[C@@H]1CCCC[C@H]1Nc1nc2ccc(Cn3cnc4cncnc43)cc2s1` [Example 48, (1R,2R)-2-((6-((9H-purin-9-yl)methyl)benzo[d]thiazol-2-yl)amino)cyclohexanol] are > 5 µM and 0.05 to 0.2 µM.
Compound `COc1cc2c(cc1Br)ncn2Cc1ccc2nc(N[C@@H]3c4ccccc4C[C@H]3O)sc2c1` [Example 49, (1R,2R)-1-((6-((5-bromo-6-methoxy-1H-benzo[d]imidazol-1-yl)methyl)benzo[d]thiazol-2-yl)amino)-2,3-dihydro-1H-inden-2-ol] registered a Kd in assay [1] of 1 to 5 µM. In addition, the IC50 in assay [2] fell in the range of 0.2 to 0.5 µM.
On the same counts, the results for `COc1cc2c(cc1-c1cnn(C)c1)ncn2Cc1ccc2nc(N[C@@H]3CCCC[C@H]3O)sc2c1` [Example 51, (1R,2R)-2-((6-((6-methoxy-5-(1-methyl-1H-pyrazol-4-yl)-1H-benzo[d]imidazol-1-yl)methyl)benzo[d]thiazol-2-yl)amino)cyclohexanol] are ≤ 0.2 µM and ≤ 0.05 µM.
`COc1cc2ncn(Cc3ccc4nc(N[C@@H]5CCCC[C@H]5O)sc4c3)c2cc1-c1cnn(C)c1` [Example 52, (1R,2R)-2-((6-((5-methoxy-6-(1-methyl-1H-pyrazol-4-yl)-1H-benzo[d]imidazol-1-yl)methyl)benzo[d]thiazol-2-yl)amino)cyclohexanol]: in assay [1], the Kd is ≤ 0.2 µM. The IC50 in assay [2] is ≤ 0.05 µM.
In the case of `COc1cc2ncn(Cc3ccc4nc(N[C@@H]5CCCC[C@H]5O)sc4c3)c2cc1C#N` [Example 53, 1-((2-(((1R,2R)-2-hydroxycyclohexyl)amino)benzo[d]thiazol-6-yl)methyl)-5-methoxy-1H-benzo[d]imidazole-6-carbonitrile], the Kd in assay [1] was in the range of 1 to 5 µM. In addition, the IC50 in assay [2] was ≤ 0.05 µM.
Consider `O=C1CCCC[C@H]1Nc1nc2ccc(Cn3cnc4cccnc43)cc2s1` [Example 54, (R)-2-((6-((3H-imidazo[4,5-b]pyridin-3-yl)methyl)benzo[d]thiazol-2-yl)amino)cyclohexanone], for which the Kd in assay [1] was > 5 µM. Besides, the IC50 in assay [2] was 0.05 to 0.2 µM.
On to `O[C@@H]1CCCC[C@H]1Nc1nc2ccc(Cn3cnc4cc(Cl)cnc43)cc2s1` [Example 55, (1R,2R)-2-((6-((6-chloro-3H-imidazo[4,5-b]pyridin-3-yl)methyl)benzo[d]thiazol-2-yl)amino)cyclohexanol], for which the Kd in assay [1] fell in the range of 1 to 5 µM. Also, the IC50 in assay [2] is ≤ 0.05 µM.

By Kd is commonly meant the concentration at which binding is half-saturated. High values mean lower affinity, low ones higher affinity. What is called IC50 is the concentration that gives 50% inhibition.
